According to patent publication US20130108653A1, “BIVALENT MOLECULES FOR HIV ENTRY INHIBITION” (priority 2009, published 2013):

System: JRCSF (CCR5-tropic)
Experiment: Luciferase assay / single round infection in TZM-bl cells, JRCSF
Type: cell-based, HIV
Details: TZM-bl luciferase indicator cells; FIG. 20
Text: FIGS. 10-14. Inhibitory effect of the bivalent molecules of the present invention on HIV spreading. The experiment is based on the activation of the luciferase gene upon infection of TZM-bl cells. X-axis depict 3 different dilutions of a virus stock (HXB2 (CRCX4-trop, virus 89.6 (Dual-trop) or JRCSF (CCR5-trop)) with unknown titer (1×, 5× and 25×). Y-axis depicts the amount of luminescence. Lower luminescence corresponds to greater inhibitory effect of the bivalent molecules of the present invention. (See also Example 4 elsewhere herein).
JRCSF is incubated in the presence of mol 500 in a concentration of 0.2 micrograms/ml and 0.1 micrograms/ml. JRCSF incubated without mol 500 is shown as a control. […]
The experiment is based on the activation of the luciferase gene upon infection of TZM-bl cells with 3 different virus strains (HXB2 (CRCX4-tropic), virus 89.6 (Dual-tropic) or JRCSF (CCR5-tropic)). The more luminescence measured, the greater activation of the luciferase gene has occurred, and the more inefficient the inhibition of infection has been by the molecule of the present invention […]
90 μl of Luciferin (britelite plus Perkin Elmer cat no: 6016761) is added to each well in order to start the chemo-luminescence reaction.
150 μl of the liquid is removed from each well and the luminescence is measured in a FLUO star Omega (BMG LABYECH Gmbh). […]

enfuvirtide
neutralization of JR-CSF, single round infection, in words: very minor effects
